In US20260183393A1, “IMMUNOSUPPRESSANT-RESISTANT MODIFIED ALLOGENEIC MODIFIED IMMUNE CELLS AND METHODS FOR USE THEREOF” (Beam Therapeutics Inc., priority 2023, published 2026):

What was measured:
CD19^+ B cells = test: B cell aplasia and 19CAR-T cell persistence in HIS mice; format: in vivo, huCD34-NCG mice; details: TAC 10 mg kg^−1 daily; 10 days post-T cell infusion
From the text: FIGS. 19B and 19C provide a bar graph of cell concentration (FIG. 19B) and flow cytometry contour plots (FIG. 19C) for peripheral CD19^+ B cells 6 days post-T cell infusion from mice in Groups 1-4. FIGS. 19D and 19E provide bar graphs showing total CD19^+ B cells from individual mouse splenic (FIG. 19D) and bone marrow (FIG. 19E) tissue 10 days post-T cell infusion in Groups 1-4. FIG. 19F provides a bar graph showing geometric median fluorescent intensity (MFI) of CD19 expression on residual peripheral CD22^+ B cells 6 days post-T cell infusion from mice in Groups 1-4. FIG. 19G provides a bar graph showing concentration of peripheral CD22^+CD19^dim B cells 6 days post-T cell infusion from mice in Groups 1-4. […] Statistical significance was calculated by Wilcoxon rank sum test (FIGS. 19B, 19D, and 19E) and Kruskall-Wallace test with Dunn's test for multiple comparisons (FIGS. 19F, 19G, 19I, and 19J).
For the studies described in FIGS. 19A to 19J, huCD34-NCG mice were used in Cohort #6 (n=16), Cohort #7 (n=12), Cohort #8 (n=24), and Cohort #9 (n=12) and were evenly distributed into 4 groups via matched distribution based on degree of human T cell engraftment using StudyLog. […] Endogenous B cell aplasia and persistence of 19CAR-T cells was monitored at 7- and 11-days post-drug treatment via blood draw from the submandibular vein and tissue collection at necropsy.

[1] = tested on: mTOR and downstream substrates S6Rp and 4E-BP1; test: Phosphorylation of mTOR, S6 and 4EBP1 in malignant B cell lines; format: cell-based, human; details: JeKo-1, Raji and Nalm6 cells treated with DMSO or RPM
Experimental: (§1) FIGS. 26A to 26E provide histograms and plots showing malignant B cell lines were sensitive to Rapamycin treatment in vitro. FIG. 26A provides histograms showing geometric median fluorescent intensity (MFI) of phosphorylated mTOR (pS2448), S6 (pS235/[…]) and 4EBP1 (pT36/T45) in JeKo-1, Raji and Nalm6 cell lines, as well as primary human monocytes and bulk lymphocytes. FIGS. 26B to 26D relate to an experiment where JeKo-1, Raji and Nalm6 cells were treated with DMSO or Rapamycin (RPM) and then analyzed for phosphorylation level of mTOR (FIG. 26B), S6 (FIG. 26C) and 4EBP1 (FIG. 26D). FIG. 26E provides plots showing JeKo-1, Raji and Nalm6 cell growth kinetics after treatment with DMSO or RPM at different concentrations. Symbols indicate mean and error bars show ±s.e.m.
Live cells were discriminated by staining negative for Fixable Viability Dye eFluor780 (eBioscience). CountBright Counting Beads were used according to the manufacturer's instructions to determine concentration of immune cells from whole blood. Intracellular cytokines were detected using Cell Fixation & Cell Permeability Kit (Invitrogen) following manufacturer's protocol with anti-human antibodies from Biolegend: TNF-a (MAb11), IFN-g (4S.B3), IL-2 (MQH-17H12) and GM-CSF (BVD2-21C11). […] Data was analyzed using FlowJo software v.10 (Tree Star).

Nalm6 = test: Cell growth kinetics with rapamycin, Nalm6; format: cell-based, human; details: RPM at different concentrations
Experimental: as §1

## C=CC[C@@H]1/C=C(\C)C[C@H](C)C[C@H](OC)[C@H]2O[C@@](O)(C(=O)C(=O)N3CCCC[C@H]3C(=O)O[C@H](/C(C)=C/[C@@H]3CC[C@@H](O)[C@H](OC)C3)[C@H](C)[C@@H](O)CC1=O)[C@H](C)C[C@@H]2OC [tacrolimus, Tacrolimus]
CD19^+ B cells
  allorejection of HLA-I^+ 19CAR-T cells in peripheral blood and spleen: protected HLA-I^+ 19CAR-T cells

## CO[C@H]1C[C@@H]2CC[C@@H](C)[C@@](O)(O2)C(=O)C(=O)N2CCCC[C@H]2C(=O)O[C@H]([C@H](C)C[C@@H]2CC[C@@H](O)[C@H](OC)C2)CC(=O)[C@H](C)/C=C(\C)[C@@H](O)[C@@H](OC)C(=O)[C@H](C)C[C@H](C)/C=C/C=C/C=C/1C [rapamycin, Rapamycin]
[1]
  protein phosphorylation of mTOR and downstream substrates S6Rp and 4E-BP1: attenuated protein phosphorylation
Nalm6
  in vitro proliferation: inhibited in vitro proliferation
